{"source": "patent US20110195845A1", "about": "“Constructs for Expressing Herbicide Tolerance Genes, Related Plants, and Related Trait Combinations” (Dow AgroSciences LLC, priority 2008, published 2011)", "key": {"[1]": {"test_system": "Escherichia coli BL21-Star (DE3) with CsVMV promoter//DSM-2 (3264)", "experiment": "Viral promoter driven complementation on glufosinate, plasmid 3264; on bacterial growth on minimal media: key: ++++ = Heavy Lawn Growth; +++ = Lawn Growth; ++ = Lots of Distinct Colonies; + = Scattered Colony Growth", "assay_type": "cell-based", "details": "for bacterial growth on minimal media: 48 hrs @37 C", "protocol": "(§1) Plasmid constructs in which the DSM-2 (v2) and PAT gene coding sequences were expressed, under either the viral promoters CsVMV or the plant promoter AtUbi10, were assayed for complementation on minimal media containing glufosinate. The plasmids 3778 (Rb7 MARv3//AtUbi10 promoter//DSM-2 (v2)//Atu Orf 1 3′UTR), 3779 (Rb7 MARv3//AtUbi10 promoter//PAT//Atu Orf 1 3′UTR), 3264 (CsVMV promoter//DSM-2//Atu Orf 24 3′UTR), 3037 (CsVMV promoter//PAT//Atu Orf 25/26 3′UTR), and 770 (control plasmid containing CsVMV promoter//GUS v3//Atu Orf 24 3′UTR) were transformed into Escherichia coli BL21-Star (DE3) and grown up in complex media. Five microliters of the cultures were plated on minimal media containing increasing concentrations of Glufosinate and incubated at 37° C. for 48 hours."}, "[2]": {"test_system": "Escherichia coli BL21-Star (DE3) with CsVMV promoter//PAT (3037)", "experiment": "Viral promoter driven complementation on glufosinate, plasmid 3037", "assay_type": "cell-based", "details": "48 hrs @37 C", "protocol": "as §1"}, "[3]": {"test_system": "Arabidopsis seed (wildtype, PAT, DSM-2 (v2))", "experiment": "DSM-2 (v2) as selectable marker: survival of sown seed after glufosinate spray", "assay_type": "in vivo, Arabidopsis thaliana", "protocol": "The ability to use DSM-2 (v2) as a selectable marker using glufosinate as the selection agent was analyzed with Arabidopsis transformed as described above. Approximately 100 T1 generation Arabidopsis seed (100-150 seeds) containing for DSM-2 (v2) or 2 mg homozygous T5 plants containing PAT were spiked into approximately 10,000 wildtype (sensitive) seed. Each tray of plants received two application timings of 280 g ai/ha glufosinate at the following treatment times: 7 DAP and 11 DAP. Treatments were applied with a DeVilbiss spray tip as previously described. Another 2 mg T1 generation Arabidopsis seed from each was sown and not sprayed as a comparison count. Plants were identified as Resistant or Sensitive 17 DAP."}, "[4]": {"test_system": "DSM-2 v2 (pDAS1941) T2 corn", "experiment": "T2 corn response to glufosinate applied postemergence", "assay_type": "in vivo", "details": "for % Injury Ave / individuals with % Injury 20-40% / individuals with % Injury <20% / individuals with % Injury >40%: 14DAT", "description": "(§2) The seed from the cross of T1 DSM-2 (v2)×5× H751 were planted into 4-inch pots containing Metro Mix media and at 2 leaf stage were sprayed in the track sprayer set to 187 L/ha at 560 g ai/ha glufosinate to remove nulls. At 7 DAT nulls were removed and resistant plants were sprayed in the track sprayer as above at the following rates: 0, 560, 1120, 2240, and 4480 g ai/ha glufosinate. Plants were graded at 3 and 14 DAT and compared to 5× H751× Hi II control plants."}, "PAT (pDAS1942) corn [5]": {"test_system": "PAT (pDAS1942) corn", "experiment": "T2 corn response to glufosinate applied postemergence", "assay_type": "in vivo", "details": "14DAT", "description": "as §2"}, "PAT (pDAS1942) corn [6]": {"test_system": "PAT (pDAS1942) corn", "experiment": "T2 corn response to glufosinate applied postemergence", "assay_type": "in vivo", "details": "14DAT", "remark": "listed apart in the source"}, "[7]": {"details": "560 g ai/ha glufosinate postemergence"}, "[8]": {"details": "1120 g ai/ha glufosinate postemergence"}, "[9]": {"details": "2240 g ai/ha glufosinate postemergence"}, "[10]": {"details": "4480 g ai/ha glufosinate postemergence"}}}
{"smiles": "CP(=O)(O)CCC(N)C(=O)O", "note": "(stereo not shown) [glufosinate]", "values": [{"measurement": "bacterial growth on minimal media", "setting": "[1]; 250 μg/ml BASTA", "value": "++"}, {"measurement": "bacterial growth on minimal media", "setting": "[1]; 500 μg/ml BASTA", "value": "+"}, {"measurement": "concentration in minimal media to which promoter-driven DSM-2 provided resistance", "setting": "[1]; CsVMV promoter, minimal media", "value": 200, "unit": "µg/mL"}, {"measurement": "bacterial growth on minimal media", "setting": "[2]; 250 μg/ml BASTA", "value": "++"}, {"measurement": "bacterial growth on minimal media", "setting": "[2]; 500 μg/ml BASTA", "value": "+"}, {"measurement": "Number of Surviving Plants Following glufosinate Spray", "setting": "[3]; 280 g ai/ha glufosinate 7 DAP and 11 DAP, Trt 1: 200 mg WT planted", "value": 0}, {"measurement": "Number of Surviving Plants Following glufosinate Spray", "setting": "[3]; 280 g ai/ha glufosinate, Trt 2: 2 mg PAT planted", "value": 154}, {"measurement": "Number of Surviving Plants Following glufosinate Spray", "setting": "[3]; 280 g ai/ha glufosinate, Trt 3: 200 mg WT + 2 mg PAT planted", "value": 121}, {"measurement": "Number of Surviving Plants Following glufosinate Spray", "setting": "[3]; 280 g ai/ha glufosinate, Trt 4: 2 mg DSM-2 (v2) planted", "value": 117}, {"measurement": "Number of Surviving Plants Following glufosinate Spray", "setting": "[3]; 280 g ai/ha glufosinate, Trt 5: 200 mg WT + 2 mg DSM-2 (v2) planted", "value": 121}, {"measurement": "% Injury Ave", "setting": "[4]; [7]", "value": 6, "unit": "%"}, {"measurement": "individuals with % Injury 20-40%", "setting": "[4]; [7]", "value": 0}, {"measurement": "individuals with % Injury <20%", "setting": "[4]; [7]", "value": 4}, {"measurement": "individuals with % Injury >40%", "setting": "[4]; [7]", "value": 0}, {"measurement": "% Injury Ave", "setting": "[4]; [8]", "value": 18, "unit": "%"}, {"measurement": "individuals with % Injury 20-40%", "setting": "[4]; [8]", "value": 2}, {"measurement": "individuals with % Injury <20%", "setting": "[4]; [8]", "value": 2}, {"measurement": "individuals with % Injury >40%", "setting": "[4]; [8]", "value": 0}, {"measurement": "% Injury Ave", "setting": "[4]; [9]", "value": 21, "unit": "%"}, {"measurement": "individuals with % Injury 20-40%", "setting": "[4]; [9]", "value": 3}, {"measurement": "individuals with % Injury <20%", "setting": "[4]; [9]", "value": 1}, {"measurement": "individuals with % Injury >40%", "setting": "[4]; [9]", "value": 0}, {"measurement": "% Injury Ave", "setting": "[4]; [10]", "value": 29, "unit": "%"}, {"measurement": "individuals with % Injury 20-40%", "setting": "[4]; [10]", "value": 4}, {"measurement": "individuals with % Injury <20%", "setting": "[4]; [10]", "value": 0}, {"measurement": "individuals with % Injury >40%", "setting": "[4]; [10]", "value": 0}, {"measurement": "injury of individual plants", "setting": "[4]; up to 2240 g ai/ha glufosinate", "value": "less than 20%"}, {"measurement": "individuals with % Injury 20-40%", "setting": "PAT (pDAS1942) corn [5]; [7]", "value": 0}, {"measurement": "individuals with % Injury >40%", "setting": "PAT (pDAS1942) corn [5]; [7]", "value": 0}, {"measurement": "% Injury Ave", "setting": "PAT (pDAS1942) corn [5]; [8]", "value": 25, "unit": "%"}, {"measurement": "individuals with % Injury 20-40%", "setting": "PAT (pDAS1942) corn [5]; [8]", "value": 1}, {"measurement": "individuals with % Injury <20%", "setting": "PAT (pDAS1942) corn [5]; [8]", "value": 0}, {"measurement": "% Injury Ave", "setting": "PAT (pDAS1942) corn [5]; [10]", "value": 33, "unit": "%"}, {"measurement": "individuals with % Injury 20-40%", "setting": "PAT (pDAS1942) corn [5]; [10]", "value": 3}, {"measurement": "individuals with % Injury >40%", "setting": "PAT (pDAS1942) corn [5]; [10]", "value": 1}, {"measurement": "% Injury Ave", "setting": "PAT (pDAS1942) corn [6]; [7]", "value": 6, "unit": "%"}, {"measurement": "individuals with % Injury <20%", "setting": "PAT (pDAS1942) corn [6]; [7]", "value": 4}, {"measurement": "individuals with % Injury >40%", "setting": "PAT (pDAS1942) corn [6]; [8]", "value": 3}, {"measurement": "% Injury Ave", "setting": "PAT (pDAS1942) corn [6]; [9]", "value": 25, "unit": "%"}, {"measurement": "individuals with % Injury 20-40%", "setting": "PAT (pDAS1942) corn [6]; [9]", "value": 1}, {"measurement": "individuals with % Injury <20%", "setting": "PAT (pDAS1942) corn [6]; [9]", "value": 2}, {"measurement": "individuals with % Injury >40%", "setting": "PAT (pDAS1942) corn [6]; [9]", "value": 1}, {"measurement": "individuals with % Injury <20%", "setting": "PAT (pDAS1942) corn [6]; [10]", "value": 0}]}
